Tested on: CD1 female mice
Experiment: Visual observation of mice given CP
Format: in vivo, mouse
Conditions: PND 35, PND 50 and adult mice; 3 mg/kg i.p.
Experimental: The Bloomington Institutional Animal Care and Use Committee of Indiana University reviewed and approved the animal procedures. Female mice from the CD1 strain were utilized to match our study examining THC’s effects on the brain lipidome ([Leishman et al., 2018]). Mice were given a single i.p. injection of either 3 mg/kg CP or 1:1:18 cremophor:ethanol:saline vehicle (please refer to the section “3 mg/kg CP Is Relevant for Synthetic Cannabinoid Abuse and Has Stronger Effects on the Female Mouse Brain Lipidome During Adolescence” for a justification of dose and use of female mice). Three different age groups were given injections: PND 35 and PND 50 adolescents, and adult mice (PND 113). At least eight mice in each age group received CP and at least eight received vehicle. Matching the THC study time course ([Leishman et al., 2018]), mice were sacrificed via rapid decapitation 2 h after injection. Brains were immediately removed and flash-frozen in liquid nitrogen, and then stored at -80°C until dissections were performed. Brains were dissected on an ice-cold dissection plate into the following regions: STR, HIPP, CER, THAL, CTX, HYP, MID, and STEM. These abbreviations for these brain areas will be used exclusively when discussing the results generated by these specific dissections. […]

In the case of `CCCCCCC(C)(C)c1ccc([C@@H]2C[C@H](O)CC[C@H]2CCCO)c(O)c1` [CP 55,940], the “locomotor activity (visual observation)” value is reported as “profoundly reduced locomotor activity” and the mortality is reported as “no mortality”.

— article PMC6277767, “Broad and Region-Specific Impacts of the Synthetic Cannabinoid CP 55,940 in Adolescent and Adult Female Mouse Brains” (Frontiers in Molecular Neuroscience, 2018)
